The supplement of paper PMC4862054
Where “and” joins values, the source holds several entries; their conditions need not be identical. Equal entries are not always repeated.

Legend:
Details in all cases: incubation time: 72 h
CAL-148 = experiment: normalised viability (% of control), CellTiter-Blue; higher = more viable cells (about 100 = DMSO control)
Description: (§1)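 DSRT, CellTiter-Blue viability, 72 h incubation. Signal is normalised to DMSO and benzethonium chloride controls. Value is the normalised response at dose 7.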

HDQ-P1 = experiment: as above
Description: as §1

DU-4475 = experiment: as above
Description: as §1

MDA-MB-453 = experiment: as above
Description: as §1

CAL-51 = experiment: as above
Description: as §1

CAL-85-1 = experiment: as above
Description: as §1

HCC1599 = experiment: normalised response (% of control), CellTiter-Glo; higher = more viable cells (100 = DMSO, 0 = benzethonium chloride kill control)
Procedure, shortened: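 Plates were normalised with 0.1 % DMSO as 100 and a positive kill control as 0. Breast cancer cell lines in 20 µl suspension had been seeded into 384-well plates with compound at 5 concentrations in 10-fold steps over a compound-specific 10,000-fold range, incubated 72 h, and read for CellTox Green fluorescence (485/520 nm) followed by CellTiter-Glo luminescence. Each value is the normalised signal at a single concentration.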

With C/C(=C\c1csc(C)n1)[C@@H]1C[C@@H]2O[C@]2(C)CCC[C@H](C)[C@H](O)[C@@H](C)C(=O)C(C)(C)[C@@H](O)CC(=O)N1 [Ixabepilone] (100 nM) the normalised viability (CAL-148) was 86.5%, the normalised viability (HDQ-P1) was 78.1% and the normalised viability (DU-4475) was 93.7%. The normalised viability (MDA-MB-453) was 78.5%, the normalised viability (CAL-51) was 108% and the normalised viability (CAL-85-1) was 80.5%. It also gave a normalised response (HCC1599) of 103%.
In the case of CC(=O)[C@]1(O)Cc2c(O)c3c(c(O)c2[C@@H](O[C@H]2C[C@H](N)[C@H](O)[C@H](C)O2)C1)C(=O)c1ccccc1C3=O [Idarubicin] (100 nM), the normalised viability (CAL-148) is reported as 11.3%, the normalised viability (HDQ-P1) is reported as 78.3% and the normalised viability (DU-4475) is reported as 27.7%. For the same compound, the normalised viability (MDA-MB-453) was 79.4%, the normalised viability (CAL-51) was 28% and the normalised viability (CAL-85-1) was 75.7%. It also gave a normalised response (HCC1599) of 123%.
In the case of C=CCn1c(=O)c2cnc(Nc3ccc(N4CCN(C)CC4)cc3)nc2n1-c1cccc(C(C)(C)O)n1 [MK1775] (1000 nM), the normalised viability (CAL-148) is reported as 9.04%, the normalised viability (HDQ-P1) is reported as 47.8% and the normalised viability (DU-4475) is reported as 32.2%. For the same compound, the normalised viability (MDA-MB-453) was 23.2%, the normalised viability (CAL-51) was 16.6% and the normalised viability (CAL-85-1) was 40.5%. For the same compound, the normalised response (HCC1599) was 7.3%.
In the case of Cc1cn(-c2cc(NC(=O)c3ccc(C)c(Nc4nccc(-c5cccnc5)n4)c3)cc(C(F)(F)F)c2)cn1 [Nilotinib] (1000 nM), the normalised viability (CAL-148) is reported as 93.5% and 93.9%, the normalised viability (HDQ-P1) is reported as 91.7% and 81.1% and the normalised viability (DU-4475) is reported as 113% and 98.9%. For the same compound, the normalised viability (MDA-MB-453) was 88.3% and 97.5%, the normalised viability (CAL-51) was 107% and 117% and the normalised viability (CAL-85-1) was 84.7% and 89.2%. For the same compound, the normalised response (HCC1599) was 105%.
CNC(=O)c1ccccc1Sc1ccc2c(/C=C/c3ccccn3)n[nH]c2c1 [Axitinib] (1000 nM) showed a normalised viability (CAL-148) of 97.5%, a normalised viability (HDQ-P1) of 76.8% and a normalised viability (DU-4475) of 109%. For the same compound, the normalised viability (MDA-MB-453) was 60.4%, the normalised viability (CAL-51) was 88.7% and the normalised viability (CAL-85-1) was 76.9%. The normalised response (HCC1599) was 82%.
CC(C)C[C@H](NC(=O)[C@@H](COC(C)(C)C)NC(=O)[C@H](Cc1ccc(O)cc1)NC(=O)[C@H](CO)NC(=O)[C@H](Cc1c[nH]c2ccccc12)NC(=O)[C@H](Cc1cnc[nH]1)NC(=O)[C@@H]1CCC(=O)N1)C(=O)N[C@@H](CCCNC(=N)N)C(=O)N1CCC[C@H]1C(=O)NNC(N)=O [Goserelin] (1000 nM) gave a normalised viability (CAL-148) of 97.1%, a normalised viability (HDQ-P1) of 96.9% and a normalised viability (DU-4475) of 102%. For the same compound, the normalised viability (MDA-MB-453) was 96%, the normalised viability (CAL-51) was 108% and the normalised viability (CAL-85-1) was 93.2%. The normalised response (HCC1599) was 106%.
In the case of Nc1ccn([C@@H]2O[C@H](CO)[C@@H](O)C2(F)F)c(=O)n1 [Gemcitabine] (100 nM), the normalised viability (CAL-148) is reported as 33.7%, the normalised viability (HDQ-P1) is reported as 92.3% and the normalised viability (DU-4475) is reported as 45.1%. The normalised viability (MDA-MB-453) was 48.3%, the normalised viability (CAL-51) was 16.3% and the normalised viability (CAL-85-1) was 49.8%. The normalised response (HCC1599) was 39%.
In the case of CCNC(=O)CCC/C=C\C[C@@H]1[C@@H](/C=C/[C@@H](O)CCc2ccccc2)[C@H](O)C[C@@H]1O [Bimatoprost] (550 nM), the normalised viability (CAL-148) is reported as 95.9%, the normalised viability (HDQ-P1) is reported as 93.3% and the normalised viability (DU-4475) is reported as 104%. The normalised viability (MDA-MB-453) was 91.1%, the normalised viability (CAL-51) was 118% and the normalised viability (CAL-85-1) was 94.2%. The normalised response (HCC1599) was 105%.
In the case of COc1cc(Nc2c(C#N)cnc3cc(OCCCN4CCN(C)CC4)c(OC)cc23)c(Cl)cc1Cl [Bosutinib] (1000 nM), the normalised viability (CAL-148) is reported as 72%, the normalised viability (HDQ-P1) is reported as 89.2% and the normalised viability (DU-4475) is reported as 109%. The normalised viability (MDA-MB-453) was 80.3%, the normalised viability (CAL-51) was 109% and the normalised viability (CAL-85-1) was 81.9%. For the same compound, the normalised response (HCC1599) was 86.8%.
With Cn1cc(C2=C(c3cn(C4CCN(Cc5ccccn5)CC4)c4ccccc34)C(=O)NC2=O)c2ccccc21 [Enzastaurin] (1000 nM) the normalised viability (CAL-148) was 73%, the normalised viability (HDQ-P1) was 81.2% and the normalised viability (DU-4475) was 91.7%. For the same compound, the normalised viability (MDA-MB-453) was 62.8%, the normalised viability (CAL-51) was 90.4% and the normalised viability (CAL-85-1) was 83.7%. The normalised response (HCC1599) was 95.8%.
With CCNC(=O)c1noc(-c2cc(C(C)C)c(O)cc2O)c1-c1ccc(CN2CCOCC2)cc1 [NVP-AUY922] (100 nM) the normalised viability (CAL-148) was 15.9%, the normalised viability (HDQ-P1) was 31.8% and the normalised viability (DU-4475) was 0.71%. For the same compound, the normalised viability (MDA-MB-453) was 8.47%, the normalised viability (CAL-51) was 10.1% and the normalised viability (CAL-85-1) was 28.6%. It also gave a normalised response (HCC1599) of 71%.
Work on CC1(C)CCC(c2ccc(Cl)cc2)=C(CN2CCN(c3ccc(C(=O)NS(=O)(=O)c4ccc(N[C@H](CCN5CCOCC5)CSc5ccccc5)c(S(=O)(=O)C(F)(F)F)c4)cc3)CC2)C1 [Navitoclax] (1000 nM) yielded a normalised viability (CAL-148) of 80.1%, a normalised viability (HDQ-P1) of 68.2% and a normalised viability (DU-4475) of 40.2%. It also gave a normalised viability (MDA-MB-453) of 75.5%, a normalised viability (CAL-51) of 97.6% and a normalised viability (CAL-85-1) of 81.2%. It also gave a normalised response (HCC1599) of 97.3%.
With CO[C@@H]1[C@H](N(C)C(=O)c2ccccc2)C[C@H]2O[C@]1(C)n1c3ccccc3c3c4c(c5c6ccccc6n2c5c31)C(=O)NC4 [Midostaurin] (1000 nM) the normalised viability (CAL-148) was 82.2%, the normalised viability (HDQ-P1) was 52.8% and the normalised viability (DU-4475) was 8.53%. For the same compound, the normalised viability (MDA-MB-453) was 67.9%, the normalised viability (CAL-51) was 14.5% and the normalised viability (CAL-85-1) was 81.1%. For the same compound, the normalised response (HCC1599) was 94.5%.
Compound Cc1cc(Nc2nc(N[C@@H](C)c3ncc(F)cn3)ncc2Cl)[nH]n1 [AZD1480] (100 nM) has a normalised viability (CAL-148) of 105%, a normalised viability (HDQ-P1) of 98.6% and a normalised viability (DU-4475) of 93.2%. For the same compound, the normalised viability (MDA-MB-453) was 105%, the normalised viability (CAL-51) was 108% and the normalised viability (CAL-85-1) was 82.2%. It also gave a normalised response (HCC1599) of 111%.
